Values quoted from earlier work in patent US10231947B2, “Isochroman compounds and methods of use thereof” (ARIZONA BOARD OF REGENTS ON BEHALF OF ARIZONA STATE …, priority 2017, dated 2019).

How the values were obtained:
[1] = target: hRXRβ (Homo sapiens, UniProt P28702); details: read-out: EC50 for the hRXRβ isoform
[2] = target: hRXR; details: Caco-2 cells
[3] = test system: hRXR; details: Caco-2 cells; remark: listed apart in the source

hRXRβ, sequence (P28702 whole entry, canonical isoform): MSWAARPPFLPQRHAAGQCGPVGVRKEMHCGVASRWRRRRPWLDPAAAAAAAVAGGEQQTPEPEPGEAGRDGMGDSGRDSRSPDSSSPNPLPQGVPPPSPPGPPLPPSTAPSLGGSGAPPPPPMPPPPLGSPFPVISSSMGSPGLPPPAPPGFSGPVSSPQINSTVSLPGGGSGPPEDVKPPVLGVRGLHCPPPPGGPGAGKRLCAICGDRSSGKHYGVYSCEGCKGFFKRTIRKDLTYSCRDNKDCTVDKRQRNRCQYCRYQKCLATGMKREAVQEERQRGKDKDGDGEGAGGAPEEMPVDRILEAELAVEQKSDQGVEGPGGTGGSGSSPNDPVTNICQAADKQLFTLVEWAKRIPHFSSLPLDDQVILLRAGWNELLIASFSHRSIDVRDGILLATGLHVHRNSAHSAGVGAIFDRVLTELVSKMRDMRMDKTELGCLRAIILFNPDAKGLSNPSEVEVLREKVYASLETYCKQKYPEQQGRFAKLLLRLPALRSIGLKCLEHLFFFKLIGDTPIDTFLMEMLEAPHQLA

Structure (SMILES)	EC50 [1] [nM]	Kd [2] [nM]	EC50 [3] [nM]
Cc1cc2c(cc1-c1cc(/C=C/C(=O)O)ccc1O)C(C)(C)CCC2(C)C [CD3254]	~10		
C=C(c1ccc(C(=O)O)c(F)c1)c1cc2c(cc1C)C(C)(C)CCC2(C)C [compound 3]		12	43
